Measurements as given in US20020165208A1, “Compositions and methods relating to hypertension” (priority 2000, published 2002).
Read-outs that look alike come from different tables or passages of the source.

Tests used:
[1] = system: Cyp 4a14 (+/+) and (−/−) mice; assay: Arterial blood pressure of conscious mice by right carotid artery catheter; type: in vivo, mouse; conditions: for Effect on hypertensive phenotype (blood pressure): castrated Cyp 4a14 (−/−) mice, androgen-releasing pellets
Description: The arterial blood pressures of conscious 12- to 14-week-old mice were measured by means of a right carotid artery catheter (300-500 μm OD). After surgery (24-48 h), animals were allowed to become familiar with the environment and, after stabilization, their arterial blood pressures were monitored continuously for at least 30 min by using a pressure transducer. […] For measurements of afferent arteriolar diameter, male kidneys were perfused in vitro with a physiological salt solution supplemented with a mixture of L-amino acids (23), and the juxtamedullary vasculature was monitored continuously by videomicroscopy, as described (23). The relationship between afferent arteriolar diameter and perfusion pressure was determined at 80, 120, and 160 mm Hg. Perfusion pressure changes were followed by a 3-min equilibration before steady-state diameter measurements (23).

rat CYP 4A1 = target: T1, rat CYP 4A1 (Rattus norvegicus, UniProt P08516); assay: TST oxidation by rat CYP 4A1
T1 sequence (P08516 1-509): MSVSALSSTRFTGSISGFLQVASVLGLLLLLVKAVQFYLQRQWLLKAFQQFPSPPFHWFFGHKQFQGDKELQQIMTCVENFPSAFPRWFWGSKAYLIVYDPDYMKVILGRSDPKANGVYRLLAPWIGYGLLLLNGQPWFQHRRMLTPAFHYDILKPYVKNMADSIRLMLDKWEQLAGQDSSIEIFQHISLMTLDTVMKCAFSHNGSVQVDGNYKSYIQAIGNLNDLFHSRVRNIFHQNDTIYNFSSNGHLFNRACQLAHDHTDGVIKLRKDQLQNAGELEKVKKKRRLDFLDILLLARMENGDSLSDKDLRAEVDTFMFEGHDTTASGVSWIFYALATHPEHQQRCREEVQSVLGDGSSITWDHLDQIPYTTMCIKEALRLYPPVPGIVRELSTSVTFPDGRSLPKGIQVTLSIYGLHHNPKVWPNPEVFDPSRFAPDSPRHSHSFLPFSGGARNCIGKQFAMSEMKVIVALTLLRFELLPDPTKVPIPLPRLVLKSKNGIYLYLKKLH

rat CYP 4A2 = target: T2, rat CYP 4A2 (Rattus norvegicus, UniProt P20816); assay: TST oxidation by rat CYP 4A2
T2 sequence (P20816 5-504): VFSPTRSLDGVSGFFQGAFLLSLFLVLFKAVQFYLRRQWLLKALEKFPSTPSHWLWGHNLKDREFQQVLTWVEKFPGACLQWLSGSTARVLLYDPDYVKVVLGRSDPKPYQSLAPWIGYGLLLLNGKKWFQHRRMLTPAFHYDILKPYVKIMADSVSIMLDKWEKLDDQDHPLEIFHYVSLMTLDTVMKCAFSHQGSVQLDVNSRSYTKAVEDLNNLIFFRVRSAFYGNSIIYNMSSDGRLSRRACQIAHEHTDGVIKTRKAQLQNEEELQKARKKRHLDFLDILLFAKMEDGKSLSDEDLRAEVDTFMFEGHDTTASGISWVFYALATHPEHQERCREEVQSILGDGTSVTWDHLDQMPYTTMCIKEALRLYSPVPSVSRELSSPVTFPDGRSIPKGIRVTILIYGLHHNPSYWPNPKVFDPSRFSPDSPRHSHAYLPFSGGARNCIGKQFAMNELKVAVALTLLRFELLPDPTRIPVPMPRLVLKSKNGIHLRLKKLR

[2] = Plasma androgen levels (TST and DHT) by RIA in castrated, pellet-implanted mice; conditions: for concentration at 10 days: male, mouse, in vivo, 5 mg DHT/day, Plasma DHT level, DHT-releasing pellets, ten days after implantation
[3] = system: Arachidonic acid ω-hydroxylase of mouse kidney microsomes; conditions: DHT pellets
Description: (§1) Kidney microsomes were isolated from treated and nontreated Cyp 4a14 (+/+) and (−/−) mice (21), suspended (1-2 mg of protein/ml) in 0.05 M Tris·Cl (pH 7.4) containing 0.15 M KCl and 10 mM MgCl2, and incubated with [1^14C]AA or lauric acid (100 μM, 5 μCi/μmol each) and NADPH (1 mM) at 35° C. Reaction products were resolved and quantified as described (21). For antibody inhibition, microsomes were incubated (30 min at 22° C.) with rabbit anti-CYP 4A2 or nonimmune serum (0.1-1 mg of protein/ml) before enzymatic analysis. Recombinant Cyp 4a14 (0.1-1 μM) was incubated with [1-^14C]-labeled AA or lauric acid in the presence of purified P450 reductase, cytochrome b5, dilauroylphosphatidylcholine, and NADPH (1 mM), as described (15, 21). Urine collections (8-12 h) were incubated at 35° C. for 2-3 h with -glucoronidase (22) (Sigma) (1 mg/ml) and, after purification, the levels of 19- and 20-HETE were quantified by mass spectroscopy (22).

Cyp 4a12 transcripts = conditions: DHT-treated castrated Cyp 4a14 (−/−) mice
Description: Top frame: Samples of total RNA (5-10 μg each) from the kidneys of control (A), castrated (B), castrated and DHT-treated (C) males or from control (D) and DHT-treated (E) females were fractionated by agar electrophoresis, transferred to nitrocellulose membranes, and hybridized to ^32P-labeled DNA probes (400-500 bp) coding for segments of the 3′-untranslated end of the Cyp 4a10, 4a12, and 4a14 cDNAs. After high-stringency washes, the membranes were exposed to x-ray films for 4, 2, or 21 h for male Cyp 4a10, 4a12, and 4a14, respectively, and 6, 21, or 12 h for female Cyp 4a10, 4a12, and 4a14, respectively. RNA loadings were normalized by using a -actin cDNA probe. […] Bottom frame: Dehydrated paraffin sections from the kidneys of control (A and A′), castrated (B and B′) and DHT-treated castrated male mice (C and C′) were hybridized to [^35S]-labeled riboprobes encoding 3′-end untranslated segments of the Cyp 4a12 cDNA. After washing, RNase A treatment, and dehydration, the sections were dipped in emulsion (IlfordK5; Knutsford, Cheshire, U.K.), exposed for 4-5 days at 4° C., and developed by using D-19 (Kodak). Slides were counterstained with hematoxylin. Photomicrographs were obtained by using either dark-field (3×) (A-C) or bright-field (100×) (A′, B′, and C′) optics.

recombinant Cyp 4a14 = target: T3, recombinant Cyp 4a14 (Mus musculus, UniProt O35728); assay: Substrate oxidation by purified recombinant Cyp 4a14; type: biochemical
T3 construct: A KpnI-XhoI cDNA fragment (1.9 kb) was subcloned into the pBlueBac IV vector; made in house; host or cells: Sf9 insect cells / baculovirus (pBlueBac IV, Invitrogen)
T3 sequence (O35728 5-507): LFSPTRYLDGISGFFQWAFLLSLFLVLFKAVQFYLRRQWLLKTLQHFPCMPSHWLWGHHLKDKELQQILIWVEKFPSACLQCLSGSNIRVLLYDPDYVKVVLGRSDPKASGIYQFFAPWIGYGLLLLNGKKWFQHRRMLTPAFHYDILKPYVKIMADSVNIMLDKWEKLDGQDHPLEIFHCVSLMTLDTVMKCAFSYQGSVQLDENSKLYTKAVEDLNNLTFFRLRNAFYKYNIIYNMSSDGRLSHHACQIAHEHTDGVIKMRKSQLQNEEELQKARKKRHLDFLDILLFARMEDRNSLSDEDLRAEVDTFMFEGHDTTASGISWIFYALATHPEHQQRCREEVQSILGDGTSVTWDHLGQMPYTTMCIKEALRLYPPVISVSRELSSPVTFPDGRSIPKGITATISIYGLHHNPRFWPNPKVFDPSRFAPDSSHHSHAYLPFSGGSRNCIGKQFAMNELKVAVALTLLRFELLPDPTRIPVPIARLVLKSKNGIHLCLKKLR
Description: as §1

renal vasculature = conditions: synthetic 20-HETE; cited from earlier work

What does the source list for `C[C@]12CC[C@H]3[C@@H](CCC4=CC(=O)CC[C@@]43C)[C@@H]1CC[C@@H]2O` [TST, testosterone]?
Effect on hypertensive phenotype (blood pressure) [1]: restored the hypertensive phenotype; TST oxidation (rat CYP 4A1): neither recombinant Cyp 4a14 nor rat CYPs 4A1 or 4A2 catalyzed TST oxidation; TST oxidation (rat CYP 4A2): neither recombinant Cyp 4a14 nor rat CYPs 4A1 or 4A2 catalyzed TST oxidation; Plasma TST level ([2]; castrated Cyp 4a14 (−/−) mice given TST, n=7): 1.8±0.04 ng TST/ml

Which MABP ([1]; DHT-treated castrated Cyp 4a14 (+/+) mice, n=10) does the source give for `C[C@]12CCC(=O)C[C@@H]1CC[C@@H]1[C@@H]2CC[C@]2(C)[C@@H](O)CC[C@@H]12` [DHT, 5-dihydrotestosterone] here?
Its MABP is 137±4 mm of Hg.

And the MABP ([1]; DHT-treated control (noncastrated) Cyp 4a14 (+/+) mice, n=10)?
Its MABP is 140±5 mm of Hg.

What about the MABP ([1]; DHT-treated female Cyp 4a14 (+/+) mice) of the same compound?
The MABP was 132±4 mm of Hg.

And the MABP ([1]; DHT-treated female Cyp 4a14 (−/−) mice)?
The MABP was 133±4 mm of Hg.

And the “Effect on hypertensive phenotype (blood pressure)” value [1]?
Its value is “restored the hypertensive phenotype”.

What about the “(20-HETE) % of total” value ([3]; castrated male (+/+) mice) of the same compound?
Its value is 82 % of total.

And the ω-Hydroxylase rate ([3]; castrated male (+/+) mice)?
Its ω-Hydroxylase rate is 228 ± 35 picomoles of product formed per minute per milligram of microsomal protein.

What about the “(20-HETE) % of total” value ([3]; castrated male (−/−) mice) of the same compound?
Its value is 82 % of total.

And the ω-Hydroxylase rate ([3]; castrated male (−/−) mice)?
The ω-Hydroxylase rate was 225 ± 23 picomoles of product formed per minute per milligram of microsomal protein.

And the “(20-HETE) % of total” value ([3]; female (+/+) mice)?
The value was 76 % of total.

And the ω-Hydroxylase rate ([3]; female (+/+) mice)?
Its ω-Hydroxylase rate is 140 ± 3 picomoles of product formed per minute per milligram of microsomal protein.

And the “(20-HETE) % of total” value ([3]; female (−/−) mice)?
Its value is 77 % of total.

And the ω-Hydroxylase rate ([3]; female (−/−) mice)?
The ω-Hydroxylase rate was 164 ± 3 picomoles of product formed per minute per milligram of microsomal protein.

What about the “Cyp 4a12 transcript expression in kidney” value (Cyp 4a12 transcripts) of the same compound?
Its value is “abundant and selective expression of 4a 12 transcripts in the renal cortex”.

What about the concentration at 10 days ([2]; castrated male Cyp 4a14 (+/+) mice) of the same compound?
The concentration at 10 days was 2.64 ± 0.3 ng/mL.

And the concentration at 10 days ([2]; castrated male Cyp 4a14 (−/−) mice)?
Its concentration at 10 days is 2.01 ± 0.1 ng/mL.

For `CCCCC/C=C\C/C=C\C/C=C\C/C=C\CCCC(=O)O` [AA, arachidonic acid], which AA metabolism (recombinant Cyp 4a14; purified recombinant Cyp 4a14, even with cytochrome b5, excess P450 reductase, GSH, EDTA, and/or sodium cholate) is on record?
Its AA metabolism is “did not metabolize AA”.

For `CCCCCCCCCCCC(=O)O` [lauric acid], which “Lauric acid oxidation rate” value (recombinant Cyp 4a14; purified recombinant Cyp 4a14) is on record?
Its value is 4.0±0.8 nmol product/min/nmol of P450.

For `O=C(O)CCC/C=C\C/C=C\C/C=C\C/C=C\CCCCCO` [20-HETE, 20-hydroxyarachidonic acid], which Renal vasoconstrictor activity (renal vasculature) is on record?
The Renal vasoconstrictor activity was “powerful renal vasoconstrictor”.
